Reference: ChEMBL document CHEMBL1121692, “Synthesis of fluorine-containing peptides. Analogues of angiotensin II containing hexafluorovaline” (J Med Chem, 1981)
Residues, ends and D or L forms follow the SMILES beside them.

Species: Rattus norvegicus
Experiment: Agonist activity relative to angiotensin II in uterine contraction was estimated in rat using rat oxytocic assay

| Structure (SMILES) | Relative activity [%] |
| --- | --- |
| CC(C)[C@H](NC(=O)[C@H](CCCN=C(N)N)NC(=O)[C@@H](N)CC(=O)O)C(=O)N[C@@H](Cc1ccc(O)cc1)C(=O)N[C@H](C(=O)N[C@@H](Cc1c[nH]cn1)C(=O)N1CCC[C@H]1C(=O)N[C@@H](Cc1ccccc1)C(=O)O)C(C(F)(F)F)C(F)(F)F (HELM PEPTIDE1{D.R.V.Y.[O=C([C@@H](N[*:1])C(C(F)(F)F)C(F)(F)F)[*:2]].H.P.F}$$$$V2.0) | 133 |
| CC(C)[C@H](NC(=O)[C@H](CCCN=C(N)N)NC(=O)[C@@H](N)CC(=O)O)C(=O)N[C@@H](Cc1ccc(O)cc1)C(=O)N[C@@H](C(=O)N[C@@H](Cc1c[nH]cn1)C(=O)N1CCC[C@H]1C(=O)N[C@@H](Cc1ccccc1)C(=O)O)C(C(F)(F)F)C(F)(F)F (HELM PEPTIDE1{D.R.V.Y.[O=C([C@H](N[*:1])C(C(F)(F)F)C(F)(F)F)[*:2]].H.P.F}$$$$V2.0) | <1 |
